Results taken from US6117661A, “Mutant mono-oxygenase cytochrome P450cam” (BG plc, priority 1995, dated 2000).
Substitutions are numbered along the chain they refer to. Names and notes keep the numbering of the source. Values joined by “and” are separate entries in the source; they are usually repeats but may differ in a detail not shown here. Equal values may be shown once. Read-outs that look alike come from different tables or passages of the source.

Tests used:
[1] = target: T1, P450cam WT (Pseudomonas putida, UniProt P00183); experiment: Product distribution following oxidation of substrates (GC); format: biochemical, P. putida; settings: for Products (%) WT: label = product
T1 construct: reconstituted with putidaredoxin and putidaredoxin reductase
T1 sequence (P00259 whole entry): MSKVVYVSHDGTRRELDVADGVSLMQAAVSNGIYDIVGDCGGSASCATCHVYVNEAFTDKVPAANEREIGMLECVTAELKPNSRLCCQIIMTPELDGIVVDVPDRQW
T1 sequence (P16640 whole entry, further chain): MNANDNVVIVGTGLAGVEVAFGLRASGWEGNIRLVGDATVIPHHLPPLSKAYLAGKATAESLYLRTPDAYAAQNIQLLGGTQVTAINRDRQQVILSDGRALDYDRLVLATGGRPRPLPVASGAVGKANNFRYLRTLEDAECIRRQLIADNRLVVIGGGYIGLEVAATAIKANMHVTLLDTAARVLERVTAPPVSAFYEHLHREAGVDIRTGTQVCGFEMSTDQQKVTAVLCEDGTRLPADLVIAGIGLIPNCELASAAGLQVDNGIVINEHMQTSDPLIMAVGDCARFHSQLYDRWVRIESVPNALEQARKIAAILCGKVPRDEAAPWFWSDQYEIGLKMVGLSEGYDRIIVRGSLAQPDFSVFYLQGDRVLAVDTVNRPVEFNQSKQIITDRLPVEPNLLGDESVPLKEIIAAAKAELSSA
T1 sequence (P00183 whole entry): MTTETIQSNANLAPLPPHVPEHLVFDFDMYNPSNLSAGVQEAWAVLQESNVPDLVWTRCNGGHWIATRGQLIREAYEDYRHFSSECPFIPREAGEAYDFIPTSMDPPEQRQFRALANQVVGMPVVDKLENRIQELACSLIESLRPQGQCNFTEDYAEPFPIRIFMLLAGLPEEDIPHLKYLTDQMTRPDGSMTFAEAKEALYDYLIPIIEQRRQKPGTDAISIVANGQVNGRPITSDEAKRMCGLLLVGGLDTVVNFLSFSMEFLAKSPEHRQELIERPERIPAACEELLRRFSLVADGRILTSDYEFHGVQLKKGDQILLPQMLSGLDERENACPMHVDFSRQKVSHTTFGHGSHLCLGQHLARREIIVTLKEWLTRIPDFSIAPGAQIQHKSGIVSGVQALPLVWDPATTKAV
Protocol: (§1) A buffered solution (50 mM Tris.HCI, pH 7.4), typically 3 ml in volume, containing 10 uM putidaredoxin, 2 uM putidaredoxin reductase, 1 uM cytochrome P-450cam mono-oxygenase (wild-type or mutant), 200 mM KCI, 50 ug/ml bovine liver catalase (Sigma), and 1 mM target organic compound such as cyclohexylbenzene (added as a 0.1 M stock in ethanol) was preincubated at 30° C. for 5 minutes. The enzymatic reaction was initiated by adding NADH to a total concentration of 2 mM. Further four aliquots of NADH (to increase the NADH concentration by 1 mM each time) were added in intervals of 10 minutes, and 30 minutes into the incubation one aliquot of substrate (to increase the concentration by 1 mM) was also added. The reaction was quenched after 60 minutes by adding 0.5 ml chloroform and vortexing the mixture. The phases were separated by centrifugation (4000 g) at 4° C. The chloroform layer was analyzed by gas chromatography.
(§2) For many substrate compounds such as cyclohexylbenzene for which not all the P-450cam-mediated oxidation products are commercially available, the chloroform extracts are evaporated to dryness under a stream of nitrogen. The residues were extracted with hexane and the oxidation products separated by high performance liquid chromatography, eluting with a hexane/isopropanol gradient. The purified products were then identified by mass spectroscopy and particularly nuclear magnetic resonance spectroscopy.
(§3) The NADH concentration can be monitored at 340 nm and, in all cases, more substrates and NADH are added during the incubation.

[2] = target: T2, P450cam active site mutant Y96A (also C334A) (Pseudomonas putida, UniProt P00183, C335A/Y97A); format: biochemical, P. putida; settings: for Products(%) Y96A: label = product
T2 construct: reconstituted with putidaredoxin and putidaredoxin reductase
T2 sequence (P00183 2-415 Y97A/C335A): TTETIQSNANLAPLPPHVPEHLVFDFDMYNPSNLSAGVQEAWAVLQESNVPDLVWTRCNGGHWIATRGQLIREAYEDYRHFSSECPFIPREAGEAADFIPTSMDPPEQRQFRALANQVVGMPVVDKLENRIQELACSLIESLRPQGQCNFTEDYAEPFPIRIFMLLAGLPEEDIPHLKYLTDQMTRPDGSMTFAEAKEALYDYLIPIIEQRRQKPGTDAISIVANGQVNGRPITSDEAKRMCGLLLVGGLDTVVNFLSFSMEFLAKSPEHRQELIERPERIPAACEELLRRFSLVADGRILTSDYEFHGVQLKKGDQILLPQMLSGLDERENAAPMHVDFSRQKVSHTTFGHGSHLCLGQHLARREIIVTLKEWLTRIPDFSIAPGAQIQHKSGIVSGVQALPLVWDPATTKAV
T2 sequence (P00259 whole entry, further chain): as the sequence (P00259 whole entry) above
T2 sequence (P16640 whole entry, further chain): as the sequence (P16640 whole entry, further chain) above
Protocol: as §1, §2, §3

[3] = target: T3, P450cam active site mutant Y96F (also C334A) (Pseudomonas putida, UniProt P00183, C335A/Y97F); format: biochemical, P. putida; settings: for Products(%) Y96F: label = product
T3 construct: reconstituted with putidaredoxin and putidaredoxin reductase
T3 sequence (P16640 whole entry): as the sequence (P16640 whole entry, further chain) above
T3 sequence (P00183 2-415 Y97F/C335A): as the sequence (P00183 2-415 Y97A/C335A) above, with A96F counted along it
T3 sequence (P00259 whole entry, further chain): as the sequence (P00259 whole entry) above
Protocol: as §1, §2, §3

[4] = target: T4, P450cam active site mutant Y96L (also C334A) (Pseudomonas putida, UniProt P00183, C335A/Y97L); format: biochemical, P. putida; settings: substrate cyclohexylbenzene; for Products (%) Y96L: label = product
T4 construct: reconstituted with putidaredoxin and putidaredoxin reductase
T4 sequence (P00183 2-415 Y97L/C335A): as the sequence (P00183 2-415 Y97A/C335A) above, with A96L counted along it
T4 sequence (P16640 whole entry, further chain): as the sequence (P16640 whole entry, further chain) above
T4 sequence (P00259 whole entry, further chain): as the sequence (P00259 whole entry) above
Protocol: as §1, §2, §3

[5] = target: T5, P450cam active site mutant Y96V (also C334A) (Pseudomonas putida, UniProt P00183, C335A/Y97V); format: biochemical, P. putida; settings: substrate cyclohexylbenzene; for Products (%) Y96V: label = product
T5 construct: reconstituted with putidaredoxin and putidaredoxin reductase
T5 sequence (P00183 2-415 Y97V/C335A): as the sequence (P00183 2-415 Y97A/C335A) above, with A96V counted along it
T5 sequence (P00259 whole entry, further chain): as the sequence (P00259 whole entry) above
T5 sequence (P16640 whole entry, further chain): as the sequence (P16640 whole entry, further chain) above
Protocol: as §1, §2, §3

[6] = target: T6, Wild type P450cam (Pseudomonas putida, UniProt P00183); experiment: Turnover rate measured as NADH consumption rate; format: biochemical, P. putida; settings: small alkanes; background about 0.07
T6 sequence (P00183 whole entry): as the sequence (P00183 whole entry) above
T6 sequence (P00259 whole entry, further chain): as the sequence (P00259 whole entry) above
T6 sequence (P16640 whole entry, further chain): as the sequence (P16640 whole entry, further chain) above
Protocol: as §1, §3
(§4) Turnover rate measured as NADH consumption rate
(§5) (nmole NADH/nmole P450cam/s).

[7] = target: T7, P450cam Y96A (also contains the C334A mutation) (Pseudomonas putida, UniProt P00183, C335A/Y97A); format: biochemical, P. putida; settings: small alkanes
T7 construct: reconstituted with putidaredoxin and putidaredoxin reductase
T7 sequence (P00183 2-415 Y97A/C335A): as the sequence (P00183 2-415 Y97A/C335A) above
T7 sequence (P16640 whole entry, further chain): as the sequence (P16640 whole entry, further chain) above
T7 sequence (P00259 whole entry, further chain): as the sequence (P00259 whole entry) above
Protocol: as §1, §3, §4, §5

[8] = target: T6, Wild type P450cam; format: binding, P. putida; settings: for Wild type ΔSpin high/low: -- = no shift, nd = not determined
[9] = target: P450cam Mutant Y96A (Pseudomonas putida, UniProt P00183, C335A/Y97A); format: binding, P. putida
P450cam Mutant Y96A, sequence (P00183 2-415 Y97A/C335A): as the sequence (P00183 2-415 Y97A/C335A) above
P450cam Mutant Y96A, sequence (P16640 whole entry, further chain): as the sequence (P16640 whole entry, further chain) above
P450cam Mutant Y96A, sequence (P00259 whole entry, further chain): as the sequence (P00259 whole entry) above

[10] = Protein dimerisation by anion exchange FPLC and gel filtration; format: physicochemical; settings: Resource Q FPLC and Superose 12 gel filtration; C334A even at high concentrations (0.1 mM range)
Description: We concluded that wild-type P-450cam underwent dimerisation by intermolecular S--S disulphide bond formation between the surface cysteine 334 on two protein molecules.

[11] = Protein aggregation upon standing/storage; format: physicochemical; settings: storage at 4° C., and even in 50% glycerol solutions at -20° C.
Description: The C334A mutation has the obvious benefit of removing unwanted protein dimerisation, thus ensuring the presence of a single species in solution at all times. In addition, we noted a completely unexpected benefit of this mutation. […] Aggregation will also occur during turnover, especially at the higher P-450cam concentrations required in any economically viable industrial application in, for example, synthesis of organic molecules. […] Thus, the C334A mutation has beneficial effects in protein handling, storage, and increased catalyst lifetime.

[12] = -- = no shift, nd = not determined

OC1CCCC(c2ccccc2)C1 (single isomer, unassigned) [3-ol]
Products (%) WT ([1]; substrate cyclohexylbenzene): 43%
Products(%) Y96A ([2]; substrate cyclohexylbenzene): 20%
Products(%) Y96F ([3]; substrate cyclohexylbenzene): 54%
Products (%) Y96L [4]: 38%
Products (%) Y96V [5]: 28%

CC(C)C(C)C [2,3-dimethyl butane]
Turnover rate (NADH consumption rate) Wild type [6]: background
Turnover rate (NADH consumption rate) Y96A [7]: 16.8 nmole NADH/nmole P450cam/s

CC(C)CC(C)C [2,4-dimethyl pentane]
Turnover rate (NADH consumption rate) Wild type [6]: 0.2 nmole NADH/nmole P450cam/s
Turnover rate (NADH consumption rate) Y96A [7]: 12.6 nmole NADH/nmole P450cam/s

CCC(C)C [2-methyl butane]
Turnover rate (NADH consumption rate) Wild type [6]: background
Turnover rate (NADH consumption rate) Y96A [7]: 4.6 nmole NADH/nmole P450cam/s

CCCCCC(C)C [2-methyl heptane]
Turnover rate (NADH consumption rate) Wild type [6]: background
Turnover rate (NADH consumption rate) Y96A [7]: 2.1 nmole NADH/nmole P450cam/s

CCCCC(C)C [2-methyl hexane]
Turnover rate (NADH consumption rate) Wild type [6]: background
Turnover rate (NADH consumption rate) Y96A [7]: 10.6 nmole NADH/nmole P450cam/s
Relative activity (WT = 1) Y96A ([2]; substrate 2-methyl hexane): 2.6
Relative activity (WT = 1) Y96F ([3]; substrate 2-methyl hexane): 2.3

CCCC(C)C [2-methyl pentane]
Turnover rate (NADH consumption rate) Wild type [6]: 3.8 nmole NADH/nmole P450cam/s
Turnover rate (NADH consumption rate) Y96A [7]: 11.7 nmole NADH/nmole P450cam/s

CCC(CC)CC [3-ethyl pentane]
Turnover rate (NADH consumption rate) Wild type [6]: background
Turnover rate (NADH consumption rate) Y96A [7]: 16.2 nmole NADH/nmole P450cam/s

CCC(C)CC [3-methyl pentane]
Turnover rate (NADH consumption rate) Wild type [6]: 1.3 nmole NADH/nmole P450cam/s
Turnover rate (NADH consumption rate) Y96A [7]: 14.2 nmole NADH/nmole P450cam/s

OC1C=C(c2ccccc2)CCC1 (stereo not drawn) [3-ol (B)]
Products (%) WT ([1]; substrate phenylcyclohexene): 76%
Products(%) Y96A ([2]; substrate phenylcyclohexene): 75%

O=C1C=C(c2ccccc2)CCC1 [3-one (A)]
Products (%) WT ([1]; substrate phenylcyclohexene): 24%
Products(%) Y96A ([2]; substrate phenylcyclohexene): 25%

CCCC(C)CCC [4-methyl heptane]
Turnover rate (NADH consumption rate) Wild type [6]: 1.4 nmole NADH/nmole P450cam/s
Turnover rate (NADH consumption rate) Y96A [7]: 10.2 nmole NADH/nmole P450cam/s

O[C@H]1CC[C@@H](c2ccccc2)CC1 [Cis-4-ol]
Products (%) WT ([1]; substrate cyclohexylbenzene): 12%
Products(%) Y96A ([2]; substrate cyclohexylbenzene): 45%
Products(%) Y96F ([3]; substrate cyclohexylbenzene): 13%
Products (%) Y96L [4]: 16%
Products (%) Y96V [5]: 23%

c1ccc(C2CCCCC2)cc1 [Cyclohexylbenzene]
Wild type Vs DTT [8]: 20
Wild type ΔSpin high/low [8]: 20
Mutant Y96A ΔSpin high/low [9, 12]: 80
Total products WT ([1]; substrate cyclohexylbenzene): 0.8 area/10^5
Total products Y96A ([2]; substrate cyclohexylbenzene): 7.4 area/10^5
Total products Y96F ([3]; substrate cyclohexylbenzene): 1.1 area/10^5
Total products Y96L [4]: 10.4 area/10^5
Total products Y96V [5]: 12.5 area/10^5

CCCCCC [Hexane]
Mutant Y96A Vs DTT [9]: 60 and 40
Mutant Y96A ΔSpin high/low [9]: 70 and 60
Turnover rate (NADH consumption rate) Wild type [6]: background
Turnover rate (NADH consumption rate) Y96A [7]: 6.0 nmole NADH/nmole P450cam/s
Relative activity (WT = 1) Y96A ([2]; substrate hexane): 25.5
Relative activity (WT = 1) Y96F ([3]; substrate hexane): 18.2

OC1CCCC(c2ccccc2)C1 (stereo not drawn) [L or D 3-ol]
Products (%) WT ([1]; substrate cyclohexylbenzene): 20%
Products(%) Y96A ([2]; substrate cyclohexylbenzene): 20%
Products(%) Y96F ([3]; substrate cyclohexylbenzene): 27%
Products (%) Y96L [4]: 23%
Products (%) Y96V [5]: 39%

O[C@H]1CC[C@H](c2ccccc2)CC1 [Trans-4-ol]
Products (%) WT ([1]; substrate cyclohexylbenzene): 25%
Products(%) Y96A ([2]; substrate cyclohexylbenzene): 15%
Products(%) Y96F ([3]; substrate cyclohexylbenzene): 6%
Products (%) Y96L [4]: 23%
Products (%) Y96V [5]: 10%

C1CCCCCC1 [cycloheptane]
Turnover rate (NADH consumption rate) Wild type [6]: 4.4 nmole NADH/nmole P450cam/s
Turnover rate (NADH consumption rate) Y96A [7]: 42.5 nmole NADH/nmole P450cam/s

CCCCCCC [n-Heptane]
Wild type Vs DTT [8]: 5
Wild type ΔSpin high/low [8]: 5
Mutant Y96A Vs DTT [9]: 40
Mutant Y96A ΔSpin high/low [9, 12]: 60
Turnover rate (NADH consumption rate) Wild type [6]: 2.7 nmole NADH/nmole P450cam/s
Turnover rate (NADH consumption rate) Y96A [7]: 4.4 nmole NADH/nmole P450cam/s

CCCCCCCC [n-Octane]
Wild type Vs DTT [8]: 5
Mutant Y96A Vs DTT [9]: 45
Mutant Y96A ΔSpin high/low [9, 12]: 80
Turnover rate (NADH consumption rate) Wild type [6]: background
Turnover rate (NADH consumption rate) Y96A [7]: 5.8 nmole NADH/nmole P450cam/s

CCCCC [n-Pentane]
Wild type Vs DTT [8]: 5
Mutant Y96A Vs DTT [9]: 40
Mutant Y96A ΔSpin high/low [9, 12]: 55
Turnover rate (NADH consumption rate) Wild type [6]: background
Turnover rate (NADH consumption rate) Y96A [7]: 5.8 nmole NADH/nmole P450cam/s

B1: wild-type P-450cam: mono-oxygenase cytochrome P-450cam from P. putida (protein, UniProt P00183 2-415, looked up)
Camphor 5-monooxygenase: TTETIQSNANLAPLPPHVPEHLVFDFDMYNPSNLSAGVQEAWAVLQESNVPDLVWTRCNGGHWIATRGQLIREAYEDYRHFSSECPFIPREAGEAYDFIPTSMDPPEQRQFRALANQVVGMPVVDKLENRIQELACSLIESLRPQGQCNFTEDYAEPFPIRIFMLLAGLPEEDIPHLKYLTDQMTRPDGSMTFAEAKEALYDYLIPIIEQRRQKPGTDAISIVANGQVNGRPITSDEAKRMCGLLLVGGLDTVVNFLSFSMEFLAKSPEHRQELIERPERIPAACEELLRRFSLVADGRILTSDYEFHGVQLKKGDQILLPQMLSGLDERENACPMHVDFSRQKVSHTTFGHGSHLCLGQHLARREIIVTLKEWLTRIPDFSIAPGAQIQHKSGIVSGVQALPLVWDPATTKAV
presence of protein dimer [10]: dimer was detected
dimerisation and aggregation upon storage [11]: dimerisation as well as aggregation

B2: C58A: P-450cam surface mutant, cysteine 58 substituted to alanine (protein, UniProt P00183 2-415, looked up, variant C58A)
Camphor 5-monooxygenase: B1 Camphor 5-monooxygenase with C58A
presence of protein dimer [10]: dimer was detected
dimerisation and aggregation upon storage [11]: dimerisation as well as aggregation

B3: C136A: P-450cam surface mutant, cysteine 136 substituted to alanine (protein, UniProt P00183 2-415, looked up, variant C136A)
Camphor 5-monooxygenase: B1 Camphor 5-monooxygenase with C136A
presence of protein dimer [10]: dimer was detected
dimerisation and aggregation upon storage [11]: dimerisation as well as aggregation

B4: C85A: P-450cam surface mutant, cysteine 85 substituted to alanine (protein, UniProt P00183 2-415, looked up, variant C85A)
Camphor 5-monooxygenase: B1 Camphor 5-monooxygenase with C85A
presence of protein dimer [10]: dimer was detected
dimerisation and aggregation upon storage [11]: dimerisation as well as aggregation
